Results on 5 compounds are retold here after patent US10335409B2 (priority 2012, dated 2019).

Experiment [1] deals with genotype 4a (ED43) stable HCV replicon in Huh-7-derived cells. The experiment is described as follows: Stable subgenomic HCV replicon EC50, genotype 4a (Renilla luciferase). The class given is cell-based, hepatitis C virus. Particulars: Hepatitis C virus, 72 h, read-out: EC50 4A RLUC. In outline:
(§1)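 Compounds, three-fold diluted, were applied to Huh-7-derived cells harbouring luciferase replicons (genotype 1a H77, 1b Con1, 2a JFH-1, 4a ED43, with strain-specific adaptive mutations). Seventy-two hours later, intracellular replication was gauged by Renilla luciferase activity and EC50 derived by regression.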
On the technique in general: Replicon systems follow genome replication, usually without infectious particles.

Experiment [2] deals with genotype 1b (Con1) stable HCV replicon in Huh-7-derived cells. Briefly: Stable subgenomic HCV replicon EC50, genotype 1b (Renilla luciferase). In kind it is cell-based, hepatitis C virus. Particulars: Hepatitis C virus, stable replicon genotype 1b, 72 h, read-out: EC50 1B RLUC. In outline:
as §1

Experiment [3] has as its system genotype 2a (JFH-1) stable HCV replicon in Huh-7-derived cells. The experiment is described as follows: Stable subgenomic HCV replicon EC50, genotype 2a (Renilla luciferase). In kind it is cell-based, hepatitis C virus. Particulars: Hepatitis C virus, stable replicon genotype 2a, 72 h, read-out: EC50 2A RLUC. In outline:
as §1

The test system of experiment [4] is genotype 1b (Con1) wild type transient HCV replicon in Huh-7-derived cells. Briefly: Transient-transfected HCV replicon EC50, genotype 1b wild type. To be noted: Hepatitis C virus, 72 h, transient-transfected replicon genotype 1b wild type, read-out: EC50 1B WT. In kind it is cell-based, hepatitis C virus.
Experiment [5] concerns the target HCV NS3 protease domain genotype 3a (Hepatitis C virus genotype 3a, UniProt Q81258). The experiment is described as follows: Ki determination, NS3 protease genotype 3a (fluorogenic depsipeptide substrate). The class given is biochemical. To be noted: 200 pM enzyme, NS4A peptide. In outline: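 The NS3 protease domain (aa 1-181) with 20 μM NS4A peptide was used at 50 pM with 4 μM substrate (1b) or at 200 pM with 2 μM substrate (3a). Inhibitors (100 nM-5 pM) were pre-incubated 1 h at room temperature in HEPES/glycerol/DTT buffer with 10% DMSO. Steady-state rates (90-120 min) gave Ki via the Morrison equation, corrected for active enzyme and [S]/Km.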

Experiment [6] concerns the target HCV NS3 protease domain genotype 1b (Hepatitis C virus genotype 1b (isolate Con1), UniProt Q9WMX2, E1202G). The experiment is described as follows: Ki determination, NS3 protease genotype 1b (fluorogenic depsipeptide substrate). In kind it is biochemical. To be noted: 50 pM enzyme, NS4A peptide. The procedure: Purified NS3 protease domain (amino acids 1-181) of the genotype 1b and 3a virus were generated as above.
Reactions were run at room temperature in buffer consisting of 50 mM HEPES, 40% glycerol, 0.05% Triton X-100, 10 mM DTT, and 10% DMSO. The final assay solutions contained 50 pM NS3 genotype 1 b protease or 200 pM genotype 3a protease, 20 μM NS4A peptide, and 4 μM substrate (genotype 1b) or 2 μM substrate (genotype 3a). Inhibitor concentrations varied from 100 nM to 5 pM in 3-fold dilutions, and no-inhibitor controls were included.
Compound dilutions were made in DMSO at 20× final concentration. Reaction mixtures were prepared in 96-well assay plates. A solution of enzyme and NS4A peptide in assay buffer (25 μL volume with both reagents at 4× final concentration) was mixed with 45 μL assay buffer and 5 μL of either inhibitor or DMSO, and pre-incubated at room temperature for 1 hour. The reaction was started by addition of 25 μL substrate solution at 4× final concentration. Plates were mixed vigorously for 5-10 seconds and reactions were allowed to proceed for 90 minutes, fluorescence was measured every 30 s between 90 and 120 minutes reaction time using a Tecan InfiniTe M1000 or PerkinElmer Envision multimode plate reader with an excitation wavelength of 340 nm and an emission wavelength of 490 nm.
To determine the Ki, rates were plotted as a function of inhibitor concentration, and the data were fit with equation 1 (Morrison, J. F., Biochimica et Biophysica Acta 1969, 185, 269-286) to calculate Ki^app using GraphPad Prism 5. […] Ki was calculated from Ki^app/(1+[[S]/Km]).

The subject of experiment [7] is genotype 1a NS3/4a protease inhibitor resistant variant R155K transient HCV replicon in Huh-7-derived cells. Briefly: Transient-transfected HCV replicon EC50, genotype 1a R155K. The class given is cell-based, hepatitis C virus. To be noted: Hepatitis C virus, 72 h, read-out: EC50 1A R155K, transient-transfected replicon genotype 1a R155K resistant variant, 72 h.
The test system of experiment [8] is genotype 1b NS3/4a protease inhibitor resistant variant D168A transient HCV replicon in Huh-7-derived cells. Briefly: Transient-transfected HCV replicon EC50, genotype 1b D168A. The class given is cell-based, hepatitis C virus. To be noted: Hepatitis C virus, 72 h, read-out: EC50 1B D168A, transient-transfected replicon genotype 1b D168A resistant variant, 72 h.

The subject of experiment [9] is genotype 3a (S52) stable HCV replicon in Huh-7-derived cells. The experiment is described as follows: Stable subgenomic HCV replicon EC50, genotype 3a (Renilla luciferase). The class given is cell-based, hepatitis C virus. To be noted: Hepatitis C virus, 72 h, read-out: EC50 3A RLUC.
Experiment [10] concerns genotype 1a (H77) stable HCV replicon in Huh-7-derived cells. The experiment is described as follows: Stable subgenomic HCV replicon EC50, genotype 1a (Renilla luciferase). In kind it is cell-based, hepatitis C virus. Particulars: Hepatitis C virus, stable replicon genotype 1a, 72 h, read-out: EC50 1A RLUC. In outline: as §1
In experiment [11] the test system is genotype 1a (H77) wild type transient HCV replicon in Huh-7-derived cells. Briefly: Transient-transfected HCV replicon EC50, genotype 1a wild type. The class given is cell-based, hepatitis C virus. To be noted: Hepatitis C virus, 72 h, transient-transfected replicon genotype 1a wild type, read-out: EC50 1A WT.

For orientation: EC50 means the concentration that produces a half-maximal response. One may read the Ki as a measure of affinity in units of concentration, obtained from inhibition or displacement. Read a low Ki as higher affinity.

Sequence of HCV NS3 protease domain genotype 3a (Q81258 whole entry, looked up, the tested form may be a part): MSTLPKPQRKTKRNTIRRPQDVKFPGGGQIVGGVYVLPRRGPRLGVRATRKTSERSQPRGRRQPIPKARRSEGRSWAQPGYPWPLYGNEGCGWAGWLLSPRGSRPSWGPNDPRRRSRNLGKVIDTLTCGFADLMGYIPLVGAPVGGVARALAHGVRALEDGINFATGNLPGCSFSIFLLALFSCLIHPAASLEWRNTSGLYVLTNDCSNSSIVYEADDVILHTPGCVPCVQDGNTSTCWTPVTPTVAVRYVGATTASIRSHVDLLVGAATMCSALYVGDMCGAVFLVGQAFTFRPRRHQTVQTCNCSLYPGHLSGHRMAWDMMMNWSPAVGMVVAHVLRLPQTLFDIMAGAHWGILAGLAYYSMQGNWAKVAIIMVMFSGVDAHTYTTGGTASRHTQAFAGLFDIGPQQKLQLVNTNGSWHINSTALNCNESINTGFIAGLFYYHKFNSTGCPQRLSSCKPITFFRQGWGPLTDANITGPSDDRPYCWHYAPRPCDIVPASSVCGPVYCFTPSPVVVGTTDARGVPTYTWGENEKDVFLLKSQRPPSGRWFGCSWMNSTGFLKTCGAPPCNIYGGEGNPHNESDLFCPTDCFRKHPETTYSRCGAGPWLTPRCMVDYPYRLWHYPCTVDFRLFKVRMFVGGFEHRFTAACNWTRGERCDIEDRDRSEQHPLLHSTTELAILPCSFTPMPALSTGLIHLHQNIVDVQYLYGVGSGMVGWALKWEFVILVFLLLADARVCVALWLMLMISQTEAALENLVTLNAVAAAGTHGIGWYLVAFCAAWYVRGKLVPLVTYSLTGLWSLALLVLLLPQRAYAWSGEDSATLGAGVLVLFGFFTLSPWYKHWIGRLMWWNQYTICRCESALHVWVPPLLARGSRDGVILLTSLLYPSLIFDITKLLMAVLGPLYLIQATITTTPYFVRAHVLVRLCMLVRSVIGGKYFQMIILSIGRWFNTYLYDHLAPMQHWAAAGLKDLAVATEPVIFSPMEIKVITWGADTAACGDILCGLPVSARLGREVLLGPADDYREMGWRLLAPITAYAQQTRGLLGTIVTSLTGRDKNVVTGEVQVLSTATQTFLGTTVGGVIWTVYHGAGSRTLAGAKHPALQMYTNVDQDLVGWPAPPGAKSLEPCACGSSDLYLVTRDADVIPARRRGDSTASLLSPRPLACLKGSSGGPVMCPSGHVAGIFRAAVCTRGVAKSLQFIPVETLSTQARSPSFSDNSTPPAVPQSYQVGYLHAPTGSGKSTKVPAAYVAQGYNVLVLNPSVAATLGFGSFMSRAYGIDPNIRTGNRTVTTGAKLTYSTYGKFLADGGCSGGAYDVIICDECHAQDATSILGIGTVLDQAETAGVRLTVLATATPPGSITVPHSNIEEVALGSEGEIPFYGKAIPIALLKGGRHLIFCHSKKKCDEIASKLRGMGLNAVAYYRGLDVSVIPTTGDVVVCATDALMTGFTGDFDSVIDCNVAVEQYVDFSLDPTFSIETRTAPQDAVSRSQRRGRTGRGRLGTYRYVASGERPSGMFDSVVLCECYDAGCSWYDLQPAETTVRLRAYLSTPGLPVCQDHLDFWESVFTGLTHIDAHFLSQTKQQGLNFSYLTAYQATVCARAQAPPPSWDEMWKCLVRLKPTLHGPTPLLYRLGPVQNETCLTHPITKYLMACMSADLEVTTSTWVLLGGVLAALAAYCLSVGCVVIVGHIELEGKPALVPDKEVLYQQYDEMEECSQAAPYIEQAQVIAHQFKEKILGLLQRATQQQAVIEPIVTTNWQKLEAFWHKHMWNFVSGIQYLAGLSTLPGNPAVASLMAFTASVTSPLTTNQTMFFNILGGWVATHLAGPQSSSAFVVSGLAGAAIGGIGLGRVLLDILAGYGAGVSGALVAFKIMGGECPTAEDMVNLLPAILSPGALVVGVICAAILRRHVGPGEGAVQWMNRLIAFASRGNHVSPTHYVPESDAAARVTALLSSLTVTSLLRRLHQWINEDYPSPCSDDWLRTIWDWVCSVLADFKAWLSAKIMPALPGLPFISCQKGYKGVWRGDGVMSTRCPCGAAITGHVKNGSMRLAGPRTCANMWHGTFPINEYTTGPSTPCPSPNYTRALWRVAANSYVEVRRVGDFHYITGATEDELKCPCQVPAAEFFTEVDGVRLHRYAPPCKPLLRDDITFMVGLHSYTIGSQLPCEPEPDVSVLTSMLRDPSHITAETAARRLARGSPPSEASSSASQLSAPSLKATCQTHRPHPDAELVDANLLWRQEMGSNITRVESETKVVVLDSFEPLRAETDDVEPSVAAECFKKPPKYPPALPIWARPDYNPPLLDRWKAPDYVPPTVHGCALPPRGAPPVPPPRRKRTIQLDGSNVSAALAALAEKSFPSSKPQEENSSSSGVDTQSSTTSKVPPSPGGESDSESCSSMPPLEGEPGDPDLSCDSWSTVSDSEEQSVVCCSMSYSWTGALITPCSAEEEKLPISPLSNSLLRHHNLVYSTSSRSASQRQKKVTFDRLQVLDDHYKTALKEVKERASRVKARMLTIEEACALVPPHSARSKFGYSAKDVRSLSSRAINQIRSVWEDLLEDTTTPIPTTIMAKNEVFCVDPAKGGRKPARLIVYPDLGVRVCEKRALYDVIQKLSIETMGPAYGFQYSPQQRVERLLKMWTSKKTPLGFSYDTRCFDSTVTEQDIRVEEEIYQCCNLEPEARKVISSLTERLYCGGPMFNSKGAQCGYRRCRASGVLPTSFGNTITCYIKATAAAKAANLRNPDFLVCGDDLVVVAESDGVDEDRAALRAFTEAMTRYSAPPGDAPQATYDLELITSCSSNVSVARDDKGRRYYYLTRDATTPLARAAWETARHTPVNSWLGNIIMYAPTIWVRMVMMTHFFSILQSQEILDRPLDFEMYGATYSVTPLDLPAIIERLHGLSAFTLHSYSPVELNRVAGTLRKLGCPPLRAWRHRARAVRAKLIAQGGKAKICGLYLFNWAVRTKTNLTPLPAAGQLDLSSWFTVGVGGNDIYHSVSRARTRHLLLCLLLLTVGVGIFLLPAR
Sequence of HCV NS3 protease domain genotype 1b (Q9WMX2 1027-1208 E1202G): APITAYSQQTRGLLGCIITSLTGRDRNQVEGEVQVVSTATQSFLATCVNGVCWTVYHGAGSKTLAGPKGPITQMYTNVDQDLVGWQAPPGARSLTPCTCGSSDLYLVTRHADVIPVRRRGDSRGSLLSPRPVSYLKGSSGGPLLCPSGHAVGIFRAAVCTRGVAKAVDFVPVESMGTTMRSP

Turning to `CC[C@@H]1[C@@H]2CN(C(=O)[C@H](C(C)(C)C)NC(=O)O[C@@H]3[C@H]4CC[C@H](C4)[C@H]3CCCCCc3nc4ccc(OC)cc4nc3O2)[C@@H]1C(=O)N[C@]1(C(=O)NS(=O)(=O)C2CC2)C[C@H]1C(F)F` [Example 13, (1R,4S,4aR,8S,11S,12S,13R,25aR)-8-tert-butyl-N-[(1R,2R)-1-[(cyclopropylsulfonyl)carbamoyl]-2-(difluoromethyl)cyclopropyl]-12-ethyl-17-methoxy-6,9-dioxo-2,3,4,4a,6,7,8,9,12,13,21,22,23,24,25,25a-hexadecahydro-1H,11H-1,4:10,13-dimethanoquinoxalino[2,3-k][1,10,3,6]benzodioxadiazacyclononadecine-11-carboxamide], the EC50 in experiment [1] was 11 nM; in experiment [2] it was 9.5 nM; in [3], 26 nM; in [4], 3.1 nM; in [7] it was 59 nM; in experiment [8] it was 209 nM. Moreover, the EC50 in experiment [9] is 685 nM; in [10], 13 nM; in experiment [11], 8.6 nM. Also, the values for the Ki in experiment [5] and in [6] were 0.18 nM and 0.04 nM, respectively.
Consider `CC[C@@H]1[C@@H]2CN(C(=O)[C@H](C3CCCC3)NC(=O)O[C@@H]3C[C@H]3CCCCCc3nc4ccc(OC)cc4nc3O2)[C@@H]1C(=O)N[C@]1(C(=O)NS(=O)(=O)C2(C)CC2)C[C@H]1C(F)F` [Example 14, (1aR,5S,8S,9S,10R,22aR)-5-cyclopentyl-N-[(1R,2R)-2-(difluoromethyl)-1-{[(1-methylcyclopropyl)sulfonyl]carbamoyl}cyclopropyl]-9-ethyl-14-methoxy-3,6-dioxo-1,1a,3,4,5,6,9,10,18,19,20,21,22,22a-tetradecahydro-8H-7,10-methanocyclopropa[18,19][1,10,3,6]dioxadiazacyclononadecino[11,12-b]quinoxaline-8-carboxamide], for which the EC50 was 7.3 nM in experiment [1]; 6.8 nM in [2]; 7 nM in [3]; 4 nM in experiment [4]; 21 nM in [7]; 99 nM in [8]. Besides, the EC50 in experiment [9] is 308 nM; in experiment [10], 9.7 nM; in experiment [11], 7.4 nM. The Ki in experiment [5] was 0.24 nM; in [6], 0.07 nM.
Turning to `COc1ccc2nc3c(nc2c1)O[C@H]1CN(C(=O)[C@H](C(C)(C)C)NC(=O)O[C@@H]2[C@H]4CC[C@H](C4)[C@H]2CCCCC3)[C@H](C(=O)N[C@]2(C(=O)NS(=O)(=O)C3CC3)C[C@H]2C(F)F)[C@@H]1C` [Example 26, (1R,4S,4aR,8S,11S,12S,13R,25aR)-8-tert-butyl-N-[(1R,2R)-1-[(cyclopropylsulfonyl)carbamoyl]-2-(difluoromethyl)cyclopropyl]-17-methoxy-12-methyl-6,9-dioxo-2,3,4,4a,6,7,8,9,12,13,21,22,23,24,25,25a-hexadecahydro-1H,11H-1,4:10,13-dimethanoquinoxalino[2,3-k][1,10,3,6]benzodioxadiazacyclononadecine-11-carboxamide], the EC50 in [1] came to 6 nM; in [2], 4.3 nM; in experiment [3], 12 nM; in [4], 1.9 nM; in experiment [7], 12 nM; in experiment [8], 109 nM. In addition, the EC50 in [9] worked out at 297 nM; in experiment [10], 6.3 nM; in experiment [11], 3.6 nM. The Ki was 0.17 nM in experiment [5] and 0.05 nM in experiment [6].
Regarding `CCC[C@@H]1[C@@H]2CN(C(=O)[C@H](C(C)(C)C)NC(=O)O[C@@H]3C[C@H]3CCCCCc3nc4ccc(OC)cc4nc3O2)[C@@H]1C(=O)N[C@]1(C(=O)NS(=O)(=O)C2(C)CC2)C[C@H]1C(F)F` [Example 29, (1aR,5S,8S,9S,10R,22aR)-5-tert-butyl-N-[(1R,2R)-2-(difluoromethyl)-1-{[(1-methylcyclopropyl)sulfonyl]carbamoyl}cyclopropyl]-14-methoxy-3,6-dioxo-9-propyl-1,1a,3,4,5,6,9,10,18,19,20,21,22,22a-tetradecahydro-8H-7,10-methanocyclopropa[18,19][1,10,3,6]dioxadiazacyclononadecino[11,12-b]quinoxaline-8-carboxamide], the EC50 in [1] was found to be 7.2 nM; in [2] it was 8.9 nM; in experiment [3] it was 11 nM; in experiment [4], 3.1 nM; in experiment [7] it was 11 nM; in [8], 48 nM. For the same compound, the EC50 in experiment [9] came to 137 nM; in experiment [10], 10 nM; in experiment [11] it was 4.8 nM. Besides, the Ki in experiment [5] stood at 0.12 nM; in experiment [6], 0.06 nM.
With `COc1ccc2nc3c(nc2c1)O[C@H]1CN(C(=O)[C@H](C(C)(C)C)NC(=O)O[C@@H]2C[C@H]2CCCCC3)[C@H](C(=O)N[C@]2(C(=O)NS(=O)(=O)C3(C)CC3)C[C@H]2C(F)F)[C@@H]1CC(C)C` [Example 30, (1aR,5S,8S,9S,10R,22aR)-5-tert-butyl-N-[(1R,2R)-2-(difluoromethyl)-1-{[(1-methylcyclopropyl)sulfonyl]carbamoyl}cyclopropyl]-14-methoxy-9-(2-methylpropyl)-3,6-dioxo-1,1a,3,4,5,6,9,10,18,19,20,21,22,22a-tetradecahydro-8H-7,10-methanocyclopropa[18,19][1,10,3,6]dioxadiazacyclononadecino[11,12-b]quinoxaline-8-carboxamide], the EC50 in [1] was 31 nM; in experiment [2], 35 nM; in [3], 47 nM; in experiment [4], 31 nM; in experiment [7], 296 nM; in experiment [8], 503 nM. In addition, the values for the 50% effective concentration (EC50) in experiment [9], in experiment [10] and in experiment [11] were 2440 nM, 55 nM and 41 nM, respectively. The Ki was 0.63 nM in [5] and 0.14 nM in experiment [6].
